These results are taken from US20110263574A1, “PIRENZEPINE AS OTOPROTECTIVE AGENT” (PROTEOSYS AG, priority 2009, published 2011).

Each structure is given as a SMILES string. “Also recorded” adds a separate entry of the source.

In one series the test system is PARP-1. As to conditions: induced by transient ischemia or acoustic trauma; Tabuchi et al.; cited from earlier work.
The subject of series [1] is germ cell tumor cell line 2101 Ep. Description: Survival rate of cis-platin treated cancer cell line 2101 Ep with simultaneous test compound. It is filed as cell-based. As to conditions: 2101 Ep cells; cis-platin 1.4 μM; 10 μM test compound simultaneously; control DMSO 0.1%.
The subject of another series is Outer hair cells (OHC). Description: Otoprotection in cultivated cochlea, cis-platin induced loss of outer hair cells. It is filed as cell-based. As to conditions: cultivated cochlea of post-natal mice; cis-platin 5 μM; test compound 0.1 to 100 μM; compared to controls. The protocol:
(§1) In cultivated cochlea, a loss of sensory or hair cells was induced by administering cis-platin (5 μM).
(§2) Intact cochlea of post-natal mice were cultivated up to 7 days (Unsworth and Lelkes, Nat. Med. 4 (1998), 901-907) in simulated microgravity.
(§3) The otic protectivity of the test compounds PSY 310 and PSY 3101 in the presence of ototoxic agents was tested. Neomycin (an aminoglycoside antibiotic) and cis-platinum (a chemotherapeutic agent) were added in three different concentrations to the cultivate organ over a time period of 48 hours.
(§4) The test compounds were added in six different amounts of 0.1 to 100 μM respectively.

The test system of the next series is Inner hair cells (IHC). As to the kind of experiment: Otoprotection in cultivated cochlea, cis-platin induced loss of inner hair cells. It is filed as cell-based. To be noted: cultivated cochlea of post-natal mice; cis-platin 5 μM; test compound 0.1 to 100 μM; compared to controls. As for the experimental part:
as §1, §2, §3, §4

Series [2] relates to germ cell tumor cell line NT2. Description: Survival rate of cis-platin treated cancer cell line NT2 with simultaneous test compound. It is filed as cell-based. As to conditions: cis-platin 1.4 μM, 10 μM test compound simultaneously, control DMSO 0.1%.

`NC(=O)c1cccc(N)c1` [3-aminobenzamide]: the “effect on cochleal dysfunctions” value with PARP-1 is reported as “alleviates”.
As to `CN1CCN(CC(=O)N2c3ccccc3C(=O)Nc3cccnc32)CC1` [pirenzepine], the “effect on cytotoxic effect of cis-platinum (survival rate of cancer cells)” value in series [1] and in series [2] was “does not reduce” in each case. The “preserved fraction of outer hair cells (hair cell protection)” value in the series with Outer hair cells (OHC) was “dosis dependent protection; also recorded: dose-dependent increase”. Also, the “preserved fraction of inner hair cells (hair cell protection)” value with Inner hair cells (IHC) is “dosis dependent protection; also recorded: dose-dependent increase”.
